Source: paper doi:10.1101/2024.08.19.608619, “Discovery of potent SARS-CoV-2 nsp3 macrodomain inhibitors uncovers lack of translation to cellular antiviral response” (bioRxiv, 2024)
“And” between values parts separate entries of the source, which are not always exact repeats. Equal values may be shown once. Read-outs that look alike come from different tables or passages of the source.

Columns and labels:
[1] = target: T1, 5-HT2B (h) (Homo sapiens, UniProt P41595); assay: In vitro CEREP profiling, 5-HT2B (h) (agonist radioligand); type: binding; details: test compound concentration 10 uM, read-out: perc_inhibition, % inhibition of the binding of a ligand specific for each target
T1 construct: purchased Eurofins Cerep (SafetyScreen44), recognised from the panel format
T1 sequence (P41595 whole entry): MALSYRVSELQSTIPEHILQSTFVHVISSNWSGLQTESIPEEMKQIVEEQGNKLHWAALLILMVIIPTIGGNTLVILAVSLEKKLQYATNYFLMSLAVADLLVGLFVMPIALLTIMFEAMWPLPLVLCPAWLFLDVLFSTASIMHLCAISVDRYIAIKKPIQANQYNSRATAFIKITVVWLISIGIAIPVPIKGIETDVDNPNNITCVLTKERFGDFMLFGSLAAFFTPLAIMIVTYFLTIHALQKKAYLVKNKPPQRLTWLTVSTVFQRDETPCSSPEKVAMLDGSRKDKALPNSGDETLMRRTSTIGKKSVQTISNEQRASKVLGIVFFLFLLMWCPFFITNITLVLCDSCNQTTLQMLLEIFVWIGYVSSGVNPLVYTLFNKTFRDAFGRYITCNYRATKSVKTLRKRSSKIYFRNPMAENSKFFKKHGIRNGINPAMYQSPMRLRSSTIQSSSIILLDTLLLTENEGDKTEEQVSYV
From the text: (§1) Supplement media-1.zip/Safety_Panel_Profile.csv, table | column: perc_inhibition

[2] = target: T2, 5-HT transporter (h) (Homo sapiens, UniProt P31645); assay: In vitro CEREP profiling, 5-HT transporter (h) (antagonist radioligand); details: test compound concentration 10 uM
T2 construct: purchased Eurofins Cerep (SafetyScreen44), recognised from the panel format
T2 sequence (P31645 whole entry): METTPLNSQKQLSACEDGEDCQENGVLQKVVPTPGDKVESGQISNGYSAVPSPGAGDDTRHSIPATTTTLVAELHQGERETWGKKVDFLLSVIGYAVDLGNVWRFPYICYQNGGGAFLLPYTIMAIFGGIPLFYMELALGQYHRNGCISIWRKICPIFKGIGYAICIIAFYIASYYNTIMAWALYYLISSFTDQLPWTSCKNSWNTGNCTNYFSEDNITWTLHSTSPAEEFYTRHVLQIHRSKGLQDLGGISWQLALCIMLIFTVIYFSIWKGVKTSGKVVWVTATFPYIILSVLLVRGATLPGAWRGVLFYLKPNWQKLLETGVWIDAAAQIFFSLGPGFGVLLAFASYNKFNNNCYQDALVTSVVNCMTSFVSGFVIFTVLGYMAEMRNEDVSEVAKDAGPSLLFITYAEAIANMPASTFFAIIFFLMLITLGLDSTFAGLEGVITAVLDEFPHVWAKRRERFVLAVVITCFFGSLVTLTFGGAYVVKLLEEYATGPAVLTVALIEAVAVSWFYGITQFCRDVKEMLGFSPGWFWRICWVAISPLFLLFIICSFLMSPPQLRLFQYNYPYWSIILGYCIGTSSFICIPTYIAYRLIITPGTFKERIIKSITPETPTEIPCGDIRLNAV
From the text: as §1

[3] = target: T3, H2 (h) (Homo sapiens, UniProt P25021); assay: In vitro CEREP profiling, H2 (h) (antagonist radioligand); type: binding; details: test compound concentration 10 uM, read-out: perc_inhibition (% inhibition of the binding of a ligand specific for each target)
T3 construct: purchased Eurofins Cerep (SafetyScreen44), recognised from the panel format
T3 sequence (P25021 whole entry): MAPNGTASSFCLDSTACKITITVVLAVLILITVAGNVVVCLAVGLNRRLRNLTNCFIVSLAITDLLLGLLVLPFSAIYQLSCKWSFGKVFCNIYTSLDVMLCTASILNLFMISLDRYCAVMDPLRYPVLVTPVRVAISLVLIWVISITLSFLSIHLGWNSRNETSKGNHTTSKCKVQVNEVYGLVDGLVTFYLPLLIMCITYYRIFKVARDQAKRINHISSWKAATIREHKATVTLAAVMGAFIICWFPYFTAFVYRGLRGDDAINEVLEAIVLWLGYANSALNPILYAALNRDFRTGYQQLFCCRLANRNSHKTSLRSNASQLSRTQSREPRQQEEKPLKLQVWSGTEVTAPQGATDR
From the text: as §1

[4] = target: T4, 5-HT1A (h) (Homo sapiens, UniProt P08908); assay: In vitro CEREP profiling, 5-HT1A (h) (agonist radioligand); type: binding; details: test compound concentration 10 uM, read-out: perc_inhibition (% inhibition of the binding of a ligand specific for each target)
T4 construct: purchased Eurofins Cerep (SafetyScreen44), recognised from the panel format
T4 sequence (P08908 1-422): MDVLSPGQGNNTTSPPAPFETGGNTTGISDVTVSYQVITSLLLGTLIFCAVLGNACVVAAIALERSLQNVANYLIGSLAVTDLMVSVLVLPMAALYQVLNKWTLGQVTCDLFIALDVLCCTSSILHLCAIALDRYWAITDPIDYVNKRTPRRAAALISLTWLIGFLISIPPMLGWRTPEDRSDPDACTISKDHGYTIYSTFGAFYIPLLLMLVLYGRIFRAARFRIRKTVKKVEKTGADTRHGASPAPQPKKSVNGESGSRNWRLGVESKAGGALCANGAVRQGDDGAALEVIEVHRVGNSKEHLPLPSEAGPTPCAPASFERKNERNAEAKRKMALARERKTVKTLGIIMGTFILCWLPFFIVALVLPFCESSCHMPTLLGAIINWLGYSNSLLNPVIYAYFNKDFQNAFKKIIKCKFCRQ
From the text: as §1

[5] = target: T5, mu (MOP) (h) (Homo sapiens, UniProt P35372); assay: In vitro CEREP profiling, mu (MOP) (h) (agonist radioligand); type: binding; details: test compound concentration 10 uM, read-out: perc_inhibition (% inhibition of the binding of a ligand specific for each target)
T5 construct: purchased Eurofins Cerep (SafetyScreen44), recognised from the panel format
T5 sequence (P35372 whole entry): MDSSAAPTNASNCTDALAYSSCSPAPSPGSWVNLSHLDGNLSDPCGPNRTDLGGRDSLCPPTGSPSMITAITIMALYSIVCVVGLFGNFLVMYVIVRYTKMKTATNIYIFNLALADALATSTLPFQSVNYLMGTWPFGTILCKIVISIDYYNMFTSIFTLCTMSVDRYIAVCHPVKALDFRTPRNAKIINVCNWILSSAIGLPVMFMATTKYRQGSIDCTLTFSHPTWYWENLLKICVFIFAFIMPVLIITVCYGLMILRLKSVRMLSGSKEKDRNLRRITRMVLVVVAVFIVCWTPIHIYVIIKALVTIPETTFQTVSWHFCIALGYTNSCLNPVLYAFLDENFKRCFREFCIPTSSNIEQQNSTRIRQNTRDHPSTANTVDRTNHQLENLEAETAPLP
From the text: as §1

[6] = target: T6, COX1(h) (Homo sapiens, UniProt P23219); assay: In vitro CEREP profiling, COX1(h); type: biochemical; details: test compound concentration 10 uM; Enzyme and Cell-based assays; read-out: perc_inhibition: % inhibition of control enzyme activity, COX1(h)
T6 construct: purchased Eurofins Cerep (SafetyScreen44), recognised from the panel format
T6 sequence (P23219 24-599): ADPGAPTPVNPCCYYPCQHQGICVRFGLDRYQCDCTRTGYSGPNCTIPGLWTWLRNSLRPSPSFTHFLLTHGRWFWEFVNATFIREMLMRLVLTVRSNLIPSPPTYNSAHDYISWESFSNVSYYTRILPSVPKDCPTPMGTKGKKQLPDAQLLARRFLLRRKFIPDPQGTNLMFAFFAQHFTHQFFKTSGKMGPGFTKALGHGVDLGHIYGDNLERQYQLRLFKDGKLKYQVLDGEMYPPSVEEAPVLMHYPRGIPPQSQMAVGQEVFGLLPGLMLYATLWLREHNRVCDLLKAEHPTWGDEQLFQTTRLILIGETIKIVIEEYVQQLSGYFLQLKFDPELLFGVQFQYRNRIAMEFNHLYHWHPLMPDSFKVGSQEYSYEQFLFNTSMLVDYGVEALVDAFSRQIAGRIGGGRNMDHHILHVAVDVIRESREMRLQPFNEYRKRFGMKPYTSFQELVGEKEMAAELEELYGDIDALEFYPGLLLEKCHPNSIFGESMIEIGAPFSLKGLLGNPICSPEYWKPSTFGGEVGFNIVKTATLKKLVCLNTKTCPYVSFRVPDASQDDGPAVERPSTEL
From the text: as §1

[7] = tested on: SARS-CoV-2, isolate USA-WA1/2020; assay: microbe, parasite or virus in culture; type: cell-based
[8] = Hepatic microsomal stability, HLM; type: in vitro ADME, human; details: for perc_remaining_no_cofactor: no cofactor; for microsomal CLint: liver microsomes
[9] = target: T7, norepinephrine transporter (h) (Homo sapiens, UniProt P23975); assay: In vitro CEREP profiling, norepinephrine transporter (h) (antagonist radioligand); type: binding; details: test compound concentration 10 uM, read-out: perc_inhibition, % inhibition of the binding of a ligand specific for each target
T7 construct: purchased Eurofins Cerep (SafetyScreen44), recognised from the panel format
T7 sequence (P23975 whole entry): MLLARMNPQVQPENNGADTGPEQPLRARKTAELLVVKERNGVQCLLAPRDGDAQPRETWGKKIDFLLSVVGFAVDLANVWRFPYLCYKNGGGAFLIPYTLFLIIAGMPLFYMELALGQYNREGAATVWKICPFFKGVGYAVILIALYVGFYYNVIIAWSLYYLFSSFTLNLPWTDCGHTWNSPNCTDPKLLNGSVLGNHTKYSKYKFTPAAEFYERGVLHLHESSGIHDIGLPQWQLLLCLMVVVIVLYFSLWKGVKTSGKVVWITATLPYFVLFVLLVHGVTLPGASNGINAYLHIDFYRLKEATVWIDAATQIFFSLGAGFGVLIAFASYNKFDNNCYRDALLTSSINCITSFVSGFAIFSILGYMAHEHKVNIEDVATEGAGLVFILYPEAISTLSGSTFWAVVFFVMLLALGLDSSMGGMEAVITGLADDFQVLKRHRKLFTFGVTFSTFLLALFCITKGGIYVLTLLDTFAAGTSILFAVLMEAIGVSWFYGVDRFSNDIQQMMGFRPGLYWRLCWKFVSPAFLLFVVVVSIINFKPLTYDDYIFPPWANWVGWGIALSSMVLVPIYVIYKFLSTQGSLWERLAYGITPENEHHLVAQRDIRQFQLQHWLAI
From the text: as §1

[10] = tested on: NMDA; assay: In vitro CEREP profiling, NMDA (antagonist radioligand); type: binding; details: test compound concentration 10 uM
From the text: as §1

[11] = target: T8, M1 (h) (Homo sapiens, UniProt P11229); assay: In vitro CEREP profiling, M1 (h) (antagonist radioligand); type: binding; details: test compound concentration 10 uM, read-out: perc_inhibition (% inhibition of the binding of a ligand specific for each target)
T8 construct: purchased Eurofins Cerep (SafetyScreen44), recognised from the panel format
T8 sequence (P11229 1-460): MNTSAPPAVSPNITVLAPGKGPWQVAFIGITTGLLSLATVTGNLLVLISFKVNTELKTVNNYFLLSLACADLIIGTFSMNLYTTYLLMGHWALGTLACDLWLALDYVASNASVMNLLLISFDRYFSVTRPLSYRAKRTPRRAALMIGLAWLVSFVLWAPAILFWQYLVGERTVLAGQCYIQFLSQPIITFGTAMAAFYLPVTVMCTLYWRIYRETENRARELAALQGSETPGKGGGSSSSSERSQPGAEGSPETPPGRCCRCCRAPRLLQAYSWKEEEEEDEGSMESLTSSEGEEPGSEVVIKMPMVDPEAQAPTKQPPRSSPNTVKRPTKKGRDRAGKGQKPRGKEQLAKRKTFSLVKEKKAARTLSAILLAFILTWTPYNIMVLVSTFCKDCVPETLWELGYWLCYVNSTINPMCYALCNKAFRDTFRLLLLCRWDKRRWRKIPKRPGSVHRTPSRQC
From the text: as §1

[12] = target: T9, D1 (h) (Homo sapiens, UniProt P21728); assay: In vitro CEREP profiling, D1 (h) (antagonist radioligand); type: binding; details: test compound 10 uM, read-out: perc_inhibition (% inhibition of the binding of a ligand specific for each target)
T9 construct: purchased Eurofins Cerep (SafetyScreen44), recognised from the panel format
T9 sequence (P21728 whole entry): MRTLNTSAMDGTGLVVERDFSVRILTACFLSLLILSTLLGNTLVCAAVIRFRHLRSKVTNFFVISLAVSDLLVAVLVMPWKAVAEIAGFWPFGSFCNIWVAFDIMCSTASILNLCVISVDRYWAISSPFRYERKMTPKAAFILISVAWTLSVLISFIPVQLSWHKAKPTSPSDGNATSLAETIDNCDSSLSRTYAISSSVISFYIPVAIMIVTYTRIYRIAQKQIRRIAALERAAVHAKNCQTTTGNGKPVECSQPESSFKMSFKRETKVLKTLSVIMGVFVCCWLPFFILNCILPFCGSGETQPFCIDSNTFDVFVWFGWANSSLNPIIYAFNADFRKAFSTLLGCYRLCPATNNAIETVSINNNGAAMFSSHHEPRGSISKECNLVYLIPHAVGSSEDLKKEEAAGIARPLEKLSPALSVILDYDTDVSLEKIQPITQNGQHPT
From the text: as §1

[13] = HeLa-ACE2 SARS-CoV-2 antiviral effect without P-gp inhibitor, maximum measured response of dose series
[14] = HeLa-ACE2 SARS-CoV-2 antiviral effect without P-gp inhibitor, minimum measured response of dose series
[15] = Severe acute respiratory syndrome coronavirus 2, HeLa-ACE2
[16] = In vitro human liver microsomal stability

For Cc1nn(C)cc1-c1cc2c(NC(c3ccc4c(c3)S(=O)(=O)CCC4)C(C)C)ncnc2[nH]1 (centres unmarked) [ASAP-0011446], the inhibition at 10 µM [1] was 43%, the “perc_inhibition: % inhibition of the binding of a ligand specific for each target, 5-HT transporter (h) (antagonist radioligand)” value [2] was -4% and the inhibition at 10 µM [3] was -4%. It also gave an inhibition at 10 µM [4] of 10%, an inhibition at 10 µM [5] of 28% and an inhibition at 10 µM [6] of -23%. For the same molecule, the perc_max_measured ([7]; HeLa-ACE2 SARS-CoV-2 antiviral effect without P-gp inhibitor, maximum measured response) was 111.189%, the perc_max_measured [7, 13] was 120.747% and the perc_min_measured ([7]; HeLa-ACE2 SARS-CoV-2 antiviral effect without P-gp inhibitor, minimum measured response) was 56.402%. It also gave a perc_min_measured [7, 14] of 82.491%, an EC50 [7, 15] of over 20 µM and an EC90 [7, 15] of over 20 µM. For the same molecule, the EC50 ([7]; Severe acute respiratory syndrome coronavirus 2, HeLa-ACE2, read-out: HelaACE2 EC50) was over 20 µM, the “clearance (metabolic stability), in words” value ([8]; HLM/MLM) was “moderate-to-high clearance” and the perc_remaining [8, 16] was 1.0%. For the same molecule, the t_half [8, 16] was 6.1 min, the perc_remaining_no_cofactor [8, 16] was 113.0% and the microsomal CLint [8, 16] was 273 µL/min/mg. The inhibition at 10 µM [9] was -2%, the “perc_inhibition (% inhibition of the binding of a ligand specific for each target)” value [10] was -2% and the inhibition at 10 µM [11] was 11%. The inhibition at 10 µM [12] was 3%.
In the case of CC(C)[C@@H](Nc1ncnc2[nH]c(-c3cnn(C)c3C#N)cc12)c1ccc2c(n1)OCCO2 [ASAP-0008418], the perc_max_measured [7, 13] is reported as 143.7% and 101.777%, the perc_min_measured [7, 14] is reported as 4.604% and 4.949% and the EC50 ([7]; HeLa-ACE2 SARS-CoV-2 antiviral effect without P-gp inhibitor, read-out: ec50) is reported as 5.89 µM and 5.04 µM. For the same molecule, the EC90 ([7]; HeLa-ACE2 SARS-CoV-2 antiviral effect without P-gp inhibitor, read-out: ec90) was 6.44 µM and 10.5 µM, the clint [8, 16] was 59.0 µL/min/mg and 56.0 µL/min/mg and the perc_remaining [8, 16] was 34.0% and 36.0%. For the same molecule, the t_half [8, 16] was 28.1 min and 29.7 min and the perc_remaining_no_cofactor [8, 16] was 98.0% and 104.0%.
CC(C)C(Nc1ncnc2[nH]ccc12)c1ccc2c(c1)S(=O)(=O)CCC2 (centres unmarked) [ASAP-0008327] showed a perc_max_measured [7, 13] of 112.988%, a perc_min_measured [7, 14] of 76.031% and an EC50 ([7]; Severe acute respiratory syndrome coronavirus 2, HeLa-ACE2 SARS-CoV-2 antiviral effect without P-gp inhibitor, read-out: ec50) of over 50 µM. It also gave an EC90 ([7]; Severe acute respiratory syndrome coronavirus 2, HeLa-ACE2 SARS-CoV-2 antiviral effect without P-gp inhibitor, read-out: ec90) of over 50 µM, a perc_remaining [8, 16] of 53.0% and a t_half [8, 16] of 44.7 min. For the same molecule, the perc_remaining_no_cofactor [8, 16] was 99.0% and the microsomal CLint ([8]; human, In vitro human liver microsomal stability) was 37 µL/min/mg.
